Drawing on ChEMBL document CHEMBL1130783, “Synthesis and antiviral activity of novel isodideoxy nucleosides with exocyclic methylene” (Bioorg Med Chem Lett, 1998), this text covers EC50 and IC50 for 8 compounds.

Each structure is given as a SMILES string. Values after ≈ are worked out from the molar mass of the structure shown.

In assay [1] the test system is Human alphaherpesvirus 2. Description: Compound was evaluated for the antiviral activity against HSV-2. The assay is classed as functional, organism-based.
Assay [2] concerns Human betaherpesvirus 5. Description: Compound was evaluated for the antiviral activity against HCMV. Format: functional, organism-based.
Assay [3] in a line: Compound was evaluated for its cytotoxicity. Format: functional.
Assay [4] has as its system Human alphaherpesvirus 1. The assay is described as follows: Compound was evaluated for the antiviral activity against HSV-1. Format: functional, organism-based.
Assay [5] deals with Human immunodeficiency virus 1. Description: Compound was evaluated for the antiviral activity against HIV-1. The assay is classed as functional, organism-based.

Regarding `C=C1[C@H](CO)OC[C@@H]1n1cnc2c(N)ncnc21`, the EC50 in assay [1] is > 100 µg/mL; in assay [2], 33.3 µg/mL (≈ 135 µM); in assay [4], > 100 µg/mL; in assay [5], > 100 µg/mL. Also, the IC50 in assay [3] is > 100 µg/mL.
`C=C1[C@H](CO)OC[C@@H]1n1cnc2c(O)nc(N)nc21`: the EC50 in assay [1], in assay [2], in assay [4] and in assay [5] was > 100 µg/mL each time. Also, the IC50 in assay [3] is > 100 µg/mL.
For `Nc1nc2c(ncn2COC(CO)CO)c(=O)[nH]1` [GANCICLOVIR], a half-maximal effect in assay [2] (EC50) was put at 0.74 µg/mL (≈ 2.9 µM). Moreover, the IC50 in assay [3] was > 10 µg/mL.
In the case of `Cc1cn([C@H]2C[C@H](N=[N+]=[N-])[C@@H](CO)O2)c(=O)[nH]c1=O` [ZIDOVUDINE], the IC50 in assay [3] was determined as 1 µg/mL (≈ 3.74 µM). In assay [5], this compound came in with an EC50 of 0.00132 µg/mL (≈ 0.00494 µM).
For `C=C1[C@H](CO)OC[C@@H]1n1cnc2c(O)ncnc21`, the EC50 in assay [1] is > 100 µg/mL; in assay [2], > 100 µg/mL; in assay [4] it was 35 µg/mL (≈ 141 µM); in assay [5], > 100 µg/mL. Further, in assay [3], the IC50 is > 100 µg/mL.
For `C=C1[C@H](CO)OC[C@@H]1n1ccc(=O)[nH]c1=O`, the EC50 in assay [1] is 100 µg/mL (≈ 446 µM); in assay [2], 10.6 µg/mL (≈ 47.3 µM); in assay [4], 100 µg/mL (≈ 446 µM); in assay [5] it was 100 µg/mL (≈ 446 µM). The same compound came in with a concentration for half-maximal inhibition (IC50) in assay [3] of 100 µg/mL (≈ 446 µM).
`C=C1[C@H](CO)OC[C@@H]1n1ccc(N)nc1=O`: the EC50 in assay [1], in assay [2], in assay [4] and in assay [5] was > 100 µg/mL each time. In assay [3], the IC50 was > 100 µg/mL.
Consider `Nc1nc2c(ncn2COCCO)c(=O)[nH]1` [ACYCLOVIR], for which the EC50 in assay [1] worked out at 5.12 µg/mL (≈ 22.7 µM); in assay [4] it was 1.05 µg/mL (≈ 4.68 µM). Also, the IC50 in assay [3] came to 250 µg/mL (≈ 1110 µM).
